In US7671181B2, “Polynucleotides encoding coccidian parasite casein kinase I, a chemotherapeutic target for antiprotozoal agents” (Merck Sharp & Dohme Corp., priority 2004, dated 2010):

Legend:
EtCKIα = EtCKIα (Eimeria tenella, UniProt Q6QNL9); experiment: Casein kinase assay, partially purified native EtCKIα; type: biochemical; details: native enzyme
Method: (§1) Protein kinase assays—Casein kinase activity was assayed essentially as described (Donald, R. G. K. et al., 2002, supra) using 96-well phosphocellulose plates (MAPH-NOB, Millipore; Billerica, Mass.) to capture ^33P-phosphorylated peptide or casein substrates. Kinase reactions were carried out in 40 μl volumes containing 25 mM Hepes, pH 7.4, 10 mM MgCl2, 20 mM β-glycerophosphate, 1 mM DTT, 250 μM substrate, 1 mg/mL BSA, 2 μM ATP, and 0.01 μM [γ-^33P]ATP (Perkin-Elmer, 3000 Ci/mmol). The reactions were initiated by the addition of enzyme and incubated at room temperature for 60 min. Casein (5% solution), partially dephosphorylated α-casein and β-casein were obtained from Sigma.
(§2) A variety of commercially available peptide substrates were evaluated. From Calbiochem (San Diego, Calif.): CKI substrate (RRKDLHDDEEDEAMSITA; SEQ ID NO:13); CKII substrate (RRADDSDDDDD; SEQ ID NO:14); Syntide-2 substrate (PLARTLSVAGLPGKK; SEQ ID NO:15); CaM kinase II substrate (281-291) (MHKNETVECLK; SEQ ID NO:16). From Promega: CKI substrate (DDDEESITRR; SEQ ID NO:17) and kemptide (LRRASLG; SEQ ID NO:18). From New England Biolabs (Beverly, Mass.): CKI phosphopeptide substrate (KRRRALS(p)VASLPGL; SEQ ID NO:19), and CKII substrate (RRREEETEEE; SEQ ID NO:20). PKG assays were performed with kemptide as substrate and 10 μM cGMP. CDPK was assayed with Syntide-2 substrate and in the presence of 100 μM CaCl2.
Partial purification of native EtCKIα—The inability to stably express recombinant EtCKIα in T. gondii provided impetus to purify native enzyme from E. tenella parasites (slide 5). A lysate was prepared from 2×10^10 unsporulated oocysts using previously published procedures (Gurnett, A. M. et al., 2002, supra). The first two steps of the purification scheme used were essentially scaled-up from the method described for the purification of native TgCKIα. The lysate was subjected to preparative HiLoad Q anion-exchange chromatography and fractions eluted with a NaCl gradient (0-1 M NaCl). […]

TgCKIα = TgCKIα (Toxoplasma gondii, UniProt Q6QNM1); experiment: Casein kinase assay, TgCKIα (recombinant FLAGTgCKIα or partially purified native); type: biochemical; set-up: Km(app), native TgCKIα; other: substrate titration, 2 μM ATP; IC50, nativeTgCKIα; other: partially purified native enzyme from Toxoplasma tachyzoites; sensitivity of native TgCKIα phosphopeptide kinase activity (HiTrapQ fractions 5-9); other: 0.2 μM hymenialdisine or 1; details: 0.2 μM hymenialdisine or 1 μM purvalanol B
Sequence of TgCKIα (Q6QNM1 whole entry, looked up): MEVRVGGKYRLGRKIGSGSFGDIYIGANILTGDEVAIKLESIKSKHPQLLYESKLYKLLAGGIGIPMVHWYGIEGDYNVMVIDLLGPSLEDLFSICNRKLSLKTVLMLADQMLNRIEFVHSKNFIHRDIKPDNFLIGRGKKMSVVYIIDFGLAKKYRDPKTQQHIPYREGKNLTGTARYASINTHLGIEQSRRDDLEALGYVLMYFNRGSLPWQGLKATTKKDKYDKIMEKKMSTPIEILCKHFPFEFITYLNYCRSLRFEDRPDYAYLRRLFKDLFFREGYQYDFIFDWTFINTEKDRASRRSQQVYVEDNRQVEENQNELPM
Method: as §1, with “The reactions were initiated by the addition of enzyme and incubated at room temperature for 60 min.” left out
as §2
Purification of recombinant CKI enzymes—E. coli strain BL21 Origami™ (Novagen) was transformed with FLAGTgCKIα and FLAGTgCKIβ expression vectors, and colonies were expanded into 250 mL LB cultures grown at 37° C. Expression was induced with 1 mM IPTG once cultures had reached an OD600nm of 0.3-0.5, and the transformed bacteria were harvested 4-6 hours later. Cell pellets were resuspended in 15 mL of lysis buffer containing protease inhibitors and lysates prepared as described by the supplier (Bugbuster™ reagents, Novagen). The concentration of NaCl in the lysate was adjusted to 0.5 M, and 0.5 mL of FLAG-agarose beads were added (Sigma). The mixture was allowed to rock in a Nutator mixer (Becton-Dickinson; San Jose, Calif.) for 2 hours at 4° C. The slurry was then poured into an empty column and the matrix washed with 50 mL of wash buffer (50 mM Tris-HCl, pH 7.4, 0.5M NaCl, 10% glycerol, 1 mM DTT, 1 mM EDTA). […] Protein was measured with a micro-BCA reagent (Pierce) following a TCA-sodium deoxycholate step to remove residual FLAG peptide (Brown et al., 1989, Anal. Biochem. 180:136-139). […]
Preparations of FLAGTgCKIα and FLAGTgCKIβ were purified further on a SMART system FPLC 0.1 mL MonoQ anion exchange column (Pharmacia; New York, N.Y.) equilibrated in buffer A (50 mM Hepes, pH 7.4, 10% glycerol, 1 mM DTT) at room temperature. […] A linear salt gradient was applied (0-500 mM in 3 mL at 100 μl/min) and 100 μl fractions were collected and analyzed by SDS-PAGE and for CKI activity. […]

Sequence of EtCKIα (Q6QNL9 whole entry): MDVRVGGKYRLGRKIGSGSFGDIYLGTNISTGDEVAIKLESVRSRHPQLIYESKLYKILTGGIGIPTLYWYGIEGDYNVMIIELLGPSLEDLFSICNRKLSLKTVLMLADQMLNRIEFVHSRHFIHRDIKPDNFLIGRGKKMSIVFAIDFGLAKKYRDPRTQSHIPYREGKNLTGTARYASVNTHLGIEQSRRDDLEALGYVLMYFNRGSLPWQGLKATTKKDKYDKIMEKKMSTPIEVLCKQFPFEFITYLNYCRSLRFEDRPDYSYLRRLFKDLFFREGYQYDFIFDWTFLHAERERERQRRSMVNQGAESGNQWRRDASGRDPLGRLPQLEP

## CC(C)[C@H](CO)Nc1nc(Nc2ccc(C(=O)O)c(Cl)c2)c2ncn(C(C)C)c2n1 [purvalanol B]
EtCKIα
  activity against / sensitivity of EtCKIα: good activity
TgCKIα
  sensitivity of native TgCKIα phosphopeptide kinase activity (HiTrapQ fractions 5-9): sensitive
